The nature of data set [1]: Lipophilicity, LogP of the compound. The data set is classed as physicochemical. To be noted: octanol/water.
Data set [2] deals with T1, Mitogen-activated protein kinase kinase kinase 11 (Homo sapiens, UniProt Q16584). Briefly: Inhibition of human MLK3 by ATP-competitive binding assay.
Target sequence in this assay (Q16584 whole entry, the tested form may be a part): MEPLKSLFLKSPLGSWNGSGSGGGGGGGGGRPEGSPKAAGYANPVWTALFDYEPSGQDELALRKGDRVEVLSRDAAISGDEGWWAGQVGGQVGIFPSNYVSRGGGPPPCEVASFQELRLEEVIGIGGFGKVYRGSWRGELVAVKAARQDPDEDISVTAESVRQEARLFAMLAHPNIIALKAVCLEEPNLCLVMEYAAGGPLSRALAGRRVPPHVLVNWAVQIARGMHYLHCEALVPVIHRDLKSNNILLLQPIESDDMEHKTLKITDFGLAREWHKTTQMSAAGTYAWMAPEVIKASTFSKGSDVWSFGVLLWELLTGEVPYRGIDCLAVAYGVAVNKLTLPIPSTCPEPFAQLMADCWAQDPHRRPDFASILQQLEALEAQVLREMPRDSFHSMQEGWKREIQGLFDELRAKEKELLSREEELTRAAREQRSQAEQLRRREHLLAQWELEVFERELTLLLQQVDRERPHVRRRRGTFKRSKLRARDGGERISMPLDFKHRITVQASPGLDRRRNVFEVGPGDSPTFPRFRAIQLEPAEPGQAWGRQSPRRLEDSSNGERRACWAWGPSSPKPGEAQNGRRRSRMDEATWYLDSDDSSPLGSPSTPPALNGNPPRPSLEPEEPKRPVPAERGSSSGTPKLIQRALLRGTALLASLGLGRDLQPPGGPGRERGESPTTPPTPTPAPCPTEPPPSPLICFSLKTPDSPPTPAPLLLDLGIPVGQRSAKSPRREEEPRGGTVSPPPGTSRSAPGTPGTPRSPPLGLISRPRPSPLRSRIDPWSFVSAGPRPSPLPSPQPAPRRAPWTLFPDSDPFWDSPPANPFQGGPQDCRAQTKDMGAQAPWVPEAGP
The nature of data set [3]: Permeability of the compound by PAMPA method. In kind it is ADME. To be noted: read-out: Peff. For orientation: The PAMPA barrier holds no transporters, so it reflects passive diffusion.
Data set [4] concerns the target T1, Mitogen-activated protein kinase kinase kinase 11. Nature of the data set: Inhibition of human MLK3 at 0.5 uM by ATP-competitive binding assay relative to control.
Target sequence in this assay (Q16584 whole entry, looked up, the tested form may be a part): as the sequence (Q16584 whole entry, the tested form may be a part) above

The logP is a log measure of how a compound divides between an organic and an aqueous phase. Read a low logP as a more hydrophilic compound. As a reminder, the IC50 is the concentration needed to halve the response being measured. Read a low IC50 as higher potency. As a reminder, the inhibition is the share of the control response that was lost under treatment.

SMILES strings stand for the structures.

`CCS(=O)(=O)N1CC[C@H](Nc2c(Br)cnc3[nH]c(-c4cc(C)n(-c5cc(NC(=O)CN6CCN(C)CC6)ccc5C)c4C)nc23)C1` registered a logP in data set [1] of 5.89.
In the case of `O=C1Nc2ccc3ncsc3c2/C1=C/c1c[nH]cn1`, the IC50 in data set [2] worked out at 0.144 µM.
In data set [1], `CCS(=O)(=O)N1CC[C@H](Nc2c(Br)cnc3[nH]c(-c4cc(C)n(-c5cccc(C(=O)NCCN(C)C)c5)c4C)nc23)C1` had a logP of 4.81. The molecule also displayed a half-inhibitory concentration (IC50) in data set [2] of 0.027 µM. In addition, the Papp in data set [3] was 34.2 nm/s.
The matching figures for `CCS(=O)(=O)N1CC[C@H](Nc2c(Br)cnc3[nH]c(-c4cc(C)n(-c5cccc(C(=O)N6CCOCC6)c5)c4C)nc23)C1`: 3.69, 0.006 µM and 152 nm/s.
In the case of `CCS(=O)(=O)N1CC[C@H](Nc2c(Br)cnc3[nH]c(-c4cc(C)n(-c5ccc(C(=O)NCCN(C)C)cc5)c4C)nc23)C1`, the logP in data set [1] came to 3.86. The Papp in data set [3] was 25.3 nm/s.
The corresponding values for `CCS(=O)(=O)N1CC[C@H](Nc2c(Br)cnc3[nH]c(-c4cc(C)n(-c5cc(C(=O)N6CCN(C)CC6)ccc5C)c4C)nc23)C1` are 5.06 and 357 nm/s.
The molecule `CC(C)c1nn(C)cc1-c1nc2cc(Br)cnc2[nH]1` displayed an inhibition in data set [4] of 21%.
The molecule `CCS(=O)(=O)N1CC[C@H](Nc2c(Br)cnc3nc(-c4cc(C)n(-c5cccc(NC(=O)CN6CCOCC6)c5C)c4C)[nH]c23)C1` registered a logP in data set [1] of 4.28. Moreover, the Papp in data set [3] is 478 nm/s.
Take `CCS(=O)(=O)N1CC[C@H](Nc2c(Br)cnc3[nH]c(-c4cc(C)n(-c5ccc(C(=O)N6CCOCC6)cc5)c4C)nc23)C1`: the logP in data set [1] was 3.92. In data set [2], this molecule registered an IC50 of 0.006 µM. In data set [3], the Papp was found to be 130 nm/s.
As to `CCS(=O)(=O)N1CC[C@H](Nc2c(Br)cnc3[nH]c(-c4cc(C)n(-c5ccc(NC(=O)CN(C)C)cc5C)c4C)nc23)C1`, the lipophilicity (logP) in data set [1] stood at 4.53. In data set [3], the Papp stood at 487 nm/s.
`CCS(=O)(=O)N1CC[C@H](Nc2c(Br)cnc3nc(-c4cc(C)n(-c5cccc(NC(=O)CN(C)C)c5C)c4C)[nH]c23)C1` had a log partition coefficient (logP) in data set [1] of 5.17. The Papp in data set [3] turned out to be 559 nm/s.
In the case of `CCS(=O)(=O)N1CC[C@H](Nc2c(Br)cnc3[nH]c(-c4cc(C)n(-c5ccc(C(=O)N6CCN(C)CC6)cc5C)c4C)nc23)C1`, the logP in data set [1] is 5.16. In data set [2], this molecule had an IC50 of 0.025 µM. Moreover, the Papp in data set [3] amounted to 139 nm/s.
In data set [1], `CCS(=O)(=O)N1CC[C@H](Nc2c(Br)cnc3[nH]c(-c4cc(C)n(-c5ccc(C(=O)N(C)CCN(C)C)cc5)c4C)nc23)C1` had a log partition coefficient (logP) of 3.52. For the same molecule, the Papp in data set [3] was found to be 89.1 nm/s.
Consider `CCS(=O)(=O)N1CC[C@H](Nc2c(Br)cnc3nc(-c4cc(C)n(-c5cccc(C(=O)NCCN(C)C)c5C)c4C)[nH]c23)C1`, for which the log partition coefficient (logP) in data set [1] came out at 4.86. For the same molecule, the Papp in data set [3] stood at 212 nm/s.

The record behind these values is ChEMBL document CHEMBL5335808, “Design, synthesis of new 3H-imidazo[4,5-b]pyridine derivatives and evaluation of their inhibitory properties as mixed lineage kinase 3 inhibitors” (Bioorg Med Chem Lett, 2024).
